Reference: patent US8747537B2, “Ink containing heterocyclic azo dye, and dye for use in said ink” (Mitsubishi Chemical Corporation, priority 2010, dated 2014)

Legend:
[1] = Light fastness test (retention of dye after 2 hours of high-pressure mercury lamp irradiation); format: physicochemical; conditions: n-decane; 1 mg in 250 mL, 2 hours irradiation, 400-W high-pressure mercury lamp
Procedure: The light fastness of each dye was examined in the following manner. One milligram of each dye was dissolved in 250 mL of each of n-decane, tetradecane, Isopar M, and Isopar G, and the solution was irradiated with light for 2 hours using photoreaction apparatus UVL-400HA (400-W high-pressure mercury lamp), manufactured by Riko-Kagaku Sangyo Co., Ltd. During the irradiation, the vessel was cooled with a coolant to keep the internal temperature at 10-30° C. The retention of the dye was determined through the following calculation to evaluate the light fastness. Retention of dye=(absorbance at absorption-maximum wavelength after irradiation)/(absorbance at absorption-maximum wavelength before irradiation)

[2] = Solubility test in low-polarity solvents (saturated solution, λmax, solubility, εC); format: physicochemical; conditions: for Solubility: saturated solution
Procedure: The solubility of each dye in n-decane, tetradecane, Isopar M, Isopar G, and decalin was examined in the following manner. Each dye was added to each solvent until a dissolution residue came to remain, and this mixture was subjected to a 30-minute ultrasonic treatment at 30 degrees. The resultant mixture was allowed to stand at 5° C. for 24 hours and then subjected to centrifugal filtration (centrifugal force, 5,200×g) with a 0.1-μm filter using a microcentrifuge. The saturated solution obtained was diluted to an adequate concentration, and the solubility of each dye was calculated from a relationship with an extinction coefficient determined beforehand. Furthermore, the value of the product of the molar extinction coefficient ε (Lmol^−1cm^−1) and the concentration C (molL^−1) of the saturated solution, εC, was determined.
Sudan Black B (manufactured by Tokyo Kasei Kogyo Co., Ltd.), which is a commercial oil-soluble black dye, was added to n-decane until a dissolution residue came to remain, and this mixture was subjected to a 30-minute ultrasonic treatment at 30 degrees. The resultant mixture was allowed to stand at 5° C. for 24 hours and then subjected to centrifugal filtration (centrifugal force, 5,200×g) with a 0.1-μm filter using a microcentrifuge. The saturated n-decane solution obtained was diluted to an adequate concentration, and the solubility of the dye was calculated from a relationship with an extinction coefficient determined beforehand.

Light fastness: retention of dye [1]: 99% | εC ([2]; Isopar G): 18600 cm⁻¹ | λmax (absorption-maximum wavelength) ([2]; Isopar G solution): 542 nm | Solubility ([2]; Isopar G): 20% | εC ([2]; Isopar M): 18600 cm⁻¹ | λmax (absorption-maximum wavelength) ([2]; Isopar M solution): 542 nm | Solubility ([2]; Isopar M): 20% | εC ([2]; decalin): 6600 cm⁻¹ | λmax (absorption-maximum wavelength) ([2]; decalin solution): 546 nm | Solubility ([2]; decalin): 6.7% | εC (molar extinction coefficient × concentration of saturated solution) ([2]; n-decane): 17000 cm⁻¹ | λmax (absorption-maximum wavelength) ([2]; n-decane solution): 543 nm | Solubility ([2]; n-decane, stood at 5° C. for 24 hours, 0.1-μm filter): 20% | εC ([2]; tetradecane): 16700 cm⁻¹ | λmax (absorption-maximum wavelength) ([2]; tetradecane solution): 544 nm | Solubility ([2]; tetradecane): 19%
SMILES: CCCCC(CC)CN(CC(CC)CCCC)c1ccc(N=Nc2snc(CC)c2C#N)c(NC(C)=O)c1 (stereo not shown) [Dye 10]
